# Experimental data reported in patent US11873309B2, “Heterocyclic compounds as immunomodulators” (Incyte Corporation, priority 2016, dated 2024).
# Target: T1, PD-1/PD-L1 protein/protein interaction (recombinant human PD-L1 protein (19-238), recombinant human PD-1 protein (25-167)) (Homo sapiens, UniProt Q9NZQ7)
# T1 construct: Recombinant human PD-L1 protein (19-238) with a His-tag at the C-terminus; purchased AcroBiosystems PD1-H5229 (PD-L1); PD1-H5257 (PD-1)
# Assay: PD-1/PD-L1 Homogeneous Time-Resolved Fluorescence (HTRF) Binding Assay
# Details: 25° C., PBS buffer pH 7.4, 40 minutes preincubation with inhibitors
# Experimental: Example A. PD-1/PD-L1 Homogeneous Time-Resolved Fluorescence (HTRF) Binding Assay
# The assays were conducted in a standard black 384-well polystyrene plate with a final volume of 20 μL. Inhibitors were first serially diluted in DMSO and then added to the plate wells before the addition of other reaction components. The final concentration of DMSO in the assay was 1%. The assays were carried out at 25° C. in the PBS buffer (pH 7.4) with 0.05% Tween-20 and 0.1% BSA. Recombinant human PD-L1 protein (19-238) with a His-tag at the C-terminus was purchased from AcroBiosystems (PD1-H5229). Recombinant human PD-1 protein (25-167) with Fc tag at the C-terminus was also purchased from AcroBiosystems (PD1-H5257). PD-L1 and PD-1 proteins were diluted in the assay buffer and 10 μL was added to the plate well. Plates were centrifuged and proteins were preincubated with inhibitors for 40 minutes. The incubation was followed by the addition of 10 μL of HTRF detection buffer supplemented with Europium cryptate-labeled anti-human IgG (PerkinElmer-AD0212) specific for Fc and anti-His antibody conjugated to SureLight®-Allophycocyanin (APC, PerkinElmer-AD0059H). After centrifugation, the plate was incubated at 25° C. for 60 min. before reading on a PHERAstar FS plate reader (665 nm/620 nm ratio). Final concentrations in the assay were […], 10 nM PD-L1, 1 nM europium anti-human IgG and 20 nM anti-His-Allophycocyanin. IC50 determination was performed by fitting the curve of percent control activity versus the log of the inhibitor concentration using the GraphPad Prism 5.0 software.
# T1 sequence (Q9NZQ7 19-238): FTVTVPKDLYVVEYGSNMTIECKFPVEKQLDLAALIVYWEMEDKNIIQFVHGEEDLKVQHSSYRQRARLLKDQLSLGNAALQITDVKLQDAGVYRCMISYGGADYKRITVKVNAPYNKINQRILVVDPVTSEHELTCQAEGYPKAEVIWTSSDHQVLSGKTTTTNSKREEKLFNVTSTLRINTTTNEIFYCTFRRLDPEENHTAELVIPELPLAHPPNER
row,Structure (SMILES),IC50
1,"O=C(Nc1cccc(-c2ccccc2)c1Cl)c1nc2c(s1)CNCC2 [Example 33, N-(2-chlorobiphenyl-3-yl)-4,5,6,7-tetrahydro[1,3]thiazolo[5,4-c]pyridine-2-carboxamide]",≤ 100 nM
2,"Cn1c(C(=O)Nc2cccc(-c3cccc4c3cnn4C)c2C#N)nc2c1CCNC2 [Example 42, N-(2-cyano-3-(1-methyl-1H-indazol-4-yl)phenyl)-1-methyl-4,5,6,7-tetrahydro-1H-imidazo[4,5-c]pyridine-2-carboxamide]",100 to 500 nM
3,"COc1cccc(-c2cccc(NC(=O)c3nc4c(s3)CNCC4)c2Cl)c1F [Example 32, N-(2-chloro-2′-fluoro-3′-methoxybiphenyl-3-yl)-4,5,6,7-tetrahydro[1,3]thiazolo[5,4-c]pyridine-2-carboxamide]",≤ 100 nM
4,"COc1cccc(-c2cccc(NC(=O)c3nc4c(n3C)CCN(CCO)C4)c2C#N)c1F [Example 40, N-(2-cyano-2′-fluoro-3′-methoxybiphenyl-3-yl)-5-(2-hydroxyethyl)-1-methyl-4,5,6,7-tetrahydro-1H-imidazo[4,5-c]pyridine-2-carboxamide]",≤ 100 nM
5,"N#Cc1c(NC(=O)c2nc3c(s2)CNCC3)cccc1C1CCCCC1 [Example 8, N-(2-cyano-3-cyclohexylphenyl)-4,5,6,7-tetrahydro[1,3]thiazolo[5,4-c]pyridine-2-carboxamide]",100 to 500 nM
6,"N#Cc1c(NC(=O)c2cc3n(n2)CCN(CCO)C3)cccc1-c1ccc2c(c1)OCCO2 [Example 11, N-[2-cyano-3-(2,3-dihydro-1,4-benzodioxin-6-yl)phenyl]-5-(2-hydroxyethyl)-4,5,6,7-tetrahydropyrazolo[1,5-a]pyrazine-2-carboxamide]",100 to 500 nM
7,"N#Cc1c(NC(=O)c2nc3c(s2)CNCC3)cccc1-c1ccccc1Cl [Example 18, N-(2′-chloro-2-cyanobiphenyl-3-yl)-4,5,6,7-tetrahydro[1,3]thiazolo[5,4-c]pyridine-2-carboxamide]",≤ 100 nM
8,"N#Cc1cccc(-c2cccc(NC(=O)c3nc4c(s3)CNCC4)c2C#N)c1F [Example 15, N-(2,3′-dicyano-2′-fluorobiphenyl-3-yl)-4,5,6,7-tetrahydro[1,3]thiazolo[5,4-c]pyridine-2-carboxamide]",100 to 500 nM
9,"Cc1c(NC(=O)c2nc3c(s2)CNCC3)cccc1-c1cccc2c1cnn2C [Example 23, N-[2-methyl-3-(1-methyl-1H-indazol-4-yl)phenyl]-4,5,6,7-tetrahydro[1,3]thiazolo[5,4-c]pyridine-2-carboxamide]",≤ 100 nM
10,"Cn1ncc2c(-c3cccc(NC(=O)c4nc5c(s4)CNCC5)c3Cl)cccc21 [Example 35, N-(2-chloro-3-(1-methyl-1H-indazol-4-yl)phenyl)-4,5,6,7-tetrahydrothiazolo[5,4-c]pyridine-2-carboxamide]",≤ 100 nM
11,"Cn1ncc2c(-c3cccc(NC(=O)c4nc5c(s4)CNCC5)c3C#N)cccc21 [Example 3, N-[2-cyano-3-(1-methyl-1H-indazol-4-yl)phenyl]-4,5,6,7-tetrahydro[1,3]thiazolo[5,4-c]pyridine-2-carboxamide]",≤ 100 nM
12,"COc1cccc(-c2cccc(NC(=O)c3nc4c(n3C)CCN(CC(=O)O)C4)c2C#N)c1F [Example 41, (2-{[(2-cyano-2′-fluoro-3′-methoxybiphenyl-3-yl)amino]carbonyl}-1-methyl-1,4,6,7-tetrahydro-5H-imidazo[4,5-c]pyridin-5-yl)acetic acid]",100 to 500 nM
13,"Cc1c(NC(=O)c2nc3c(s2)CNCC3)cccc1-c1ccccc1CC#N [Example 31, N-[2′-(cyanomethyl)-2-methylbiphenyl-3-yl]-4,5,6,7-tetrahydro[1,3]thiazolo[5,4-c]pyridine-2-carboxamide]",500 to 10000 nM
14,"Cc1c(NC(=O)c2nc3c(s2)CN(CC(=O)O)CC3)cccc1-c1ccccc1 [Example 28, 2-(2-(2-methylbiphenyl-3-ylcarbamoyl)-6,7-dihydrothiazolo[5,4-c]pyridin-5(4H)-yl)acetic acid]",≤ 100 nM
15,"N#Cc1c(NC(=O)c2nc3c(s2)CNCC3)cccc1-c1ccccc1 [Example 2, N-(2-cyanobiphenyl-3-yl)-4,5,6,7-tetrahydro[1,3]thiazolo[5,4-c]pyridine-2-carboxamide]",≤ 100 nM
16,"COc1cccc(-c2cccc(NC(=O)c3nc4c(s3)CNCC4)c2C#N)c1 [Example 16, N-(2-cyano-3′-methoxybiphenyl-3-yl)-4,5,6,7-tetrahydrothiazolo[5,4-c]pyridine-2-carboxamide]",≤ 100 nM

# More lines, now with the values ahead:
row,IC50,Structure (SMILES)
1,≤ 100 nM,"Cc1c(NC(=O)c2nc3c(s2)CNCC3)cc(F)cc1-c1ccc2c(c1)OCCO2 [Example 36, N-[3-(2,3-dihydro-1,4-benzodioxin-6-yl)-5-fluoro-2-methylphenyl]-4,5,6,7-tetrahydro[1,3]thiazolo[5,4-c]pyridine-2-carboxamide]"
2,≤ 100 nM,"Cc1c(NC(=O)c2nc3c(s2)CNCC3)cccc1-c1ccccc1 [Example 26, N-(2-methylbiphenyl-3-yl)-4,5,6,7-tetrahydro[1,3]thiazolo[5,4-c]pyridine-2-carboxamide]"
3,≤ 100 nM,"O=C(Nc1cccc(-c2ccc3c(c2)OCCO3)c1Cl)c1nc2c(s1)CNCC2 [Example 34, N-[2-chloro-3-(2,3-dihydro-1,4-benzodioxin-6-yl)phenyl]-4,5,6,7-tetrahydro[1,3]thiazolo[5,4-c]pyridine-2-carboxamide]"
4,100 to 500 nM,"Cc1c(NC(=O)c2nc3c(s2)CNCC3)cccc1-c1ccc2cn(C)nc2c1 [Example 29, N-[2-methyl-3-(2-methyl-2H-indazol-6-yl)phenyl]-4,5,6,7-tetrahydro[1,3]thiazolo[5,4-c]pyridine-2-carboxamide]"
5,500 to 10000 nM,"N#Cc1c(NC(=O)c2nc3n(n2)CCNC3)cccc1-c1ccc2c(c1)OCCO2 [Example 14, N-[2-cyano-3-(2,3-dihydro-1,4-benzodioxin-6-yl)phenyl]-5,6,7,8-tetrahydro[1,2,4]triazolo[1,5-a]pyrazine-2-carboxamide]"
6,≤ 100 nM,"COc1cc(F)cc(-c2cccc(NC(=O)c3nc4c(s3)CNCC4)c2C#N)c1 [Example 17, N-(2-cyano-3′-fluoro-5′-methoxybiphenyl-3-yl)-4,5,6,7-tetrahydro[1,3]thiazolo[5,4-c]pyridine-2-carboxamide]"
7,100 to 500 nM,"Cc1c(NC(=O)c2nc3c(s2)CNCC3)cccc1-c1ccccc1C#N [Example 30, N-(2′-cyano-2-methylbiphenyl-3-yl)-4,5,6,7-tetrahydro[1,3]thiazolo[5,4-c]pyridine-2-carboxamide]"
8,≤ 100 nM,"Cc1c(NC(=O)c2nc3c(s2)CNCC3)cccc1-c1ccc2c(c1)OCCO2 [Example 20, N-[3-(2,3-dihydro-1,4-benzodioxin-6-yl)-2-methylphenyl]-4,5,6,7-tetrahydro[1,3]thiazolo[5,4-c]pyridine-2-carboxamide]"
9,500 to 10000 nM,"Cc1c(NC(=O)c2nc3c(s2)CNCC3)cncc1-c1ccc2c(c1)OCCO2 [Example 38, N-[5-(2,3-dihydro-1,4-benzodioxin-6-yl)-4-methylpyridin-3-yl]-4,5,6,7-tetrahydro[1,3]thiazolo[5,4-c]pyridine-2-carboxamide]"
10,≤ 100 nM,"N#Cc1c(NC(=O)c2nc3c(s2)CNCC3)cccc1-c1ccc2c(c1)OCCO2 [Example 1, N-[2-cyano-3-(2,3-dihydro-1,4-benzodioxin-6-yl)phenyl]-4,5,6,7-tetrahydro[1,3]thiazolo[5,4-c]pyridine-2-carboxamide]"
11,500 to 10000 nM,"Cc1c(NC(=O)c2nc3c(s2)CNCC3)ccnc1-c1ccc2c(c1)OCCO2 [Example 37, N-[2-(2,3-dihydro-1,4-benzodioxin-6-yl)-3-methylpyridin-4-yl]-4,5,6,7-tetrahydro[1,3]thiazolo[5,4-c]pyridine-2-carboxamide]"
12,≤ 100 nM,"COc1cccc(-c2cccc(NC(=O)c3nc4c(s3)CNCC4)c2C)c1F [Example 21, N-(2′-fluoro-3′-methoxy-2-methylbiphenyl-3-yl)-4,5,6,7-tetrahydro[1,3]thiazolo[5,4-c]pyridine-2-carboxamide]"
13,≤ 100 nM,"Cn1c(C(=O)Nc2cccc(-c3ccc4c(c3)OCCO4)c2C#N)nc2c1CCNC2 [Example 12, N-[2-cyano-3-(2,3-dihydro-1,4-benzodioxin-6-yl)phenyl]-1-methyl-4,5,6,7-tetrahydro-1H-imidazo[4,5-c]pyridine-2-carboxamide]"
14,≤ 100 nM,"N#Cc1c(NC(=O)c2nc3c(s2)CNCC3)cccc1-c1ccc2c(c1)OCC2 [Example 6, N-[2-cyano-3-(2,3-dihydro-1-benzofuran-6-yl)phenyl]-4,5,6,7-tetrahydro[1,3]thiazolo[5,4-c]pyridine-2-carboxamide]"
15,500 to 10000 nM,"Cc1c(NC(=O)c2nc3c(s2)CNCC3)cccc1-c1cccc(CO)c1F [Example 24, N-[2′-fluoro-3′-(hydroxymethyl)-2-methylbiphenyl-3-yl]-4,5,6,7-tetrahydro[1,3]thiazolo[5,4-c]pyridine-2-carboxamide]"
